Legend:
[1] = biological target: human mGluR5a receptors (Homo sapiens (Human), UniProt P41594); assay: inhibition of glutamate-induced elevation of intracellular calcium in L(tk-) cells expressing human mGluR5a; format: cell-based; conditions: for IC50: glutamate-induced intracellular calcium elevation, L(tk-) cells expressing human mGluR5a, read-out: mGluR5 IC50; for inhibition at 2 µM: LTK, read-out: mGluR5 % inhibition at 2 μM
In short: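 Compounds tested for inhibition of the glutamate-induced rise in intracellular calcium concentration in L(tk-) cells stably expressing human mGluR5a.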

[2] = biological target: human mGluR1 (Homo sapiens (Human), UniProt Q13255); assay: mGluR1 antagonism, L-glutamate induced intracellular calcium increase (FLIPR) in CHO cells stably expressing human mGluR1; format: cell-based; conditions: L-glutamate induced intracellular calcium, CHO cells expressing human mGluR1, FLIPR
Chain of human mGluR1 (Q13255 19-1194): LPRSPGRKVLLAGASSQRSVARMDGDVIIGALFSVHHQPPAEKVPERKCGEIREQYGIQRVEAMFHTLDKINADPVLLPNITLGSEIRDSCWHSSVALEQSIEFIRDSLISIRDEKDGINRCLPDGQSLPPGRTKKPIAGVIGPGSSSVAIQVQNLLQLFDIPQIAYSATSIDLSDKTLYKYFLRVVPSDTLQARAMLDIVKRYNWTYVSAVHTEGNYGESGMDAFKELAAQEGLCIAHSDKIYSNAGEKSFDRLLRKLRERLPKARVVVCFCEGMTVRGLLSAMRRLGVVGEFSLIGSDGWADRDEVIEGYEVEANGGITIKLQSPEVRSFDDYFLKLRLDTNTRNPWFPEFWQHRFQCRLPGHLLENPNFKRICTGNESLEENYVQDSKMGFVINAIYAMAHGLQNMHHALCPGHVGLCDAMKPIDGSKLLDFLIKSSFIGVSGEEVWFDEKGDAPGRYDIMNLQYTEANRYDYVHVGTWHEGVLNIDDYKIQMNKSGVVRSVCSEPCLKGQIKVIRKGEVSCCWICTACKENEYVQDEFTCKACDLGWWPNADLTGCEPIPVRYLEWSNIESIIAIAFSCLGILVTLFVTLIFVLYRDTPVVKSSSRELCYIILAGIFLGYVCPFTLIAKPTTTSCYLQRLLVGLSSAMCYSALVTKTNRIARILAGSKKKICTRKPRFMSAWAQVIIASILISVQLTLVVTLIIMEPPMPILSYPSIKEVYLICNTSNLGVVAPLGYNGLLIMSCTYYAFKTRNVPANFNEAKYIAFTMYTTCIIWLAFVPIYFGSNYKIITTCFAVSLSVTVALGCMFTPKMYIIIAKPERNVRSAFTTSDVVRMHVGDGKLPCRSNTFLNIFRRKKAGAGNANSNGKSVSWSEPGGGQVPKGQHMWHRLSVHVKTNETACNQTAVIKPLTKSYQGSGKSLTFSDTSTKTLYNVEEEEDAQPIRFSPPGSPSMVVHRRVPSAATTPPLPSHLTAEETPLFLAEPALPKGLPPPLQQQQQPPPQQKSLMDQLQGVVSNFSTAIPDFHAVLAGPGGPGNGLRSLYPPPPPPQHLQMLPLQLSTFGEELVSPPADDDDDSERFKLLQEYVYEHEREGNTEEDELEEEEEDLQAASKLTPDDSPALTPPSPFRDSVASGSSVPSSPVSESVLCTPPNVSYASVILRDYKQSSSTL

Chain of human mGluR5a receptors (P41594 other isoform, or with tags, fused parts or gaps): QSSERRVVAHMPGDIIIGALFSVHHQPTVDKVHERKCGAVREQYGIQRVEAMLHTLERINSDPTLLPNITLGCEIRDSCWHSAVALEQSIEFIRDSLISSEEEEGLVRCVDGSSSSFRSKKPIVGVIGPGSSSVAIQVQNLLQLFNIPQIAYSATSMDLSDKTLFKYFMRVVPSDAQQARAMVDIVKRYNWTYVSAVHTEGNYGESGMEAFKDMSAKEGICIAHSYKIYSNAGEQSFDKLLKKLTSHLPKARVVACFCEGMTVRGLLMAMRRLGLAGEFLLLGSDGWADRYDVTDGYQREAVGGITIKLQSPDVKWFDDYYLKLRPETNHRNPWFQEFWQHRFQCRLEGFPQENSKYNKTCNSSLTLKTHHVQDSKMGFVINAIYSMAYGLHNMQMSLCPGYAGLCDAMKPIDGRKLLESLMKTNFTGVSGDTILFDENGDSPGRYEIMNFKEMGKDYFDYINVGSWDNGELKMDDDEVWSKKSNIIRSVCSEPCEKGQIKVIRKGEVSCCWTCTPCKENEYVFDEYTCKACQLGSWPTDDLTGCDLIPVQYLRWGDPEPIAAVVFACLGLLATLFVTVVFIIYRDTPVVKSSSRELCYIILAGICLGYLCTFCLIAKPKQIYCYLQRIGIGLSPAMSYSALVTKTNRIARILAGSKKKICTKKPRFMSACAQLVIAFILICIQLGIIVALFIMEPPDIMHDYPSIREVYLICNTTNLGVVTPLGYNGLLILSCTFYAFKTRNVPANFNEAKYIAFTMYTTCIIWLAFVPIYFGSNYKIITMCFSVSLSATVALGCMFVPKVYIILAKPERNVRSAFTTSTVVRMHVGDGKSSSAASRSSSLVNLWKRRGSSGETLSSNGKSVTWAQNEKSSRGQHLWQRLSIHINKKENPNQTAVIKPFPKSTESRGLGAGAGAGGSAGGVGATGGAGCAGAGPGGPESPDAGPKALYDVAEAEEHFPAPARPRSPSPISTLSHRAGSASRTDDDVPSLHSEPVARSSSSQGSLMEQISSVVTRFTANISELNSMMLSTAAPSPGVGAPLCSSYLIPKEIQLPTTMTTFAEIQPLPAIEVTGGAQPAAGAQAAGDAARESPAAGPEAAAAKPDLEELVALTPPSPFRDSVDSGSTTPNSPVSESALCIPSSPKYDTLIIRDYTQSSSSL

SMILES	IC50 [1] [nM]	IC50 [2] [nM]	inhibition at 2 µM [1] [%]
Cc1cn(C2=NCC(=O)N3CCc4c(cccc4-c4cnccn4)C3=C2)cn1 [Example 106b, 2-(4-methyl-1H-imidazol-1-yl)-9-(pyrazin-2-yl)-7,8-dihydro-[1,4]diazepino[7,1-a]isoquinolin-5(4H)-one]	168	7330	–
O=C1CN=C(n2cnc(C3(O)COC3)c2)C=C2c3cccc(-c4ccc(F)nc4)c3CCN12 [Example 106c, 9-(6-fluoropyridin-3-yl)-2-(4-(3-hydroxyoxetan-3-yl)-1H-imidazol-1-yl)-7,8-dihydro-[1,4]diazepino[7,1-a]isoquinolin-5(4H)-one]	1090	> 10000	–
CC1=C2c3cccc(-c4cc(C)no4)c3CCN2C(=O)CN=C1n1cnc(C2CC2)c1 [Example 107, 2-(4-cyclopropyl-1H-imidazol-1-yl)-1-methyl-9-(3-methylisoxazol-5-yl)-7,8-dihydro-[1,4]diazepino[7,1-a]isoquinolin-5(4H)-one]	835	> 10000	–
Cc1nc(-c2cccc3c2CCN2C(=O)CN=C(n4cnc(C5CC5)c4)C=C32)co1 [Example 108, 2-(4-cyclopropyl-1H-imidazol-1-yl)-9-(2-methyloxazol-4-yl)-7,8-dihydro-[1,4]diazepino[7,1-a]isoquinolin-5(4H)-one]	18	3300	–
Cc1nc(-c2cccc3c2CCN2C(=O)CN=C(n4cnc(C5CC5)n4)C=C32)co1 [Example 108a, 2-(3-cyclopropyl-1H-1,2,4-triazol-1-yl)-9-(2-methyloxazol-4-yl)-7,8-dihydro-[1,4]diazepino[7,1-a]isoquinolin-5(4H)-one]	91	> 10000	–
Cc1cn(C2=NCC(=O)N3CCc4c(cccc4-c4coc(C)n4)C3=C2)cn1 [Example 108c, 2-(4-methyl-1H-imidazol-1-yl)-9-(2-methyloxazol-4-yl)-7,8-dihydro-[1,4]diazepino[7,1-a]isoquinolin-5(4H)-one]	115	> 10000	–
O=C1CN=C(n2cnc(C3CC3)c2)C=C2c3cccc(-c4cnco4)c3CCN12 [Example 109, 2-(4-cyclopropyl-1H-imidazol-1-yl)-9-(oxazol-5-yl)-7,8-dihydro-[1,4]diazepino[7,1-a]isoquinolin-5(4H)-one]	10	1800	–
O=C1CN=C(n2cnc(C3CC3)c2)C=C2c3ccnc(-c4ccc(F)nc4)c3CCN12 [Example 110, 2-(4-cyclopropyl-1H-imidazol-1-yl)-9-(6-fluoropyridin-3-yl)-7,8-dihydro-[1,4]diazepino[7,1-a][2,6]naphthyridin-5(4H)-one]	270	> 10000	–
O=C1CN=C(n2cnc(C3CC3)c2)C=C2c3ccnc(C4CC4)c3CCN12 [Example 110a, 9-cyclopropyl-2-(4-cyclopropyl-1H-imidazol-1-yl)-7,8-dihydro-[1,4]diazepino[7,1-a][2,6]naphthyridin-5(4H)-one]	328	> 2000	–
O=C1CN=C(n2cnc(C3CC3)n2)C=C2c3ccnc(C4CC4)c3CCN12 [Example 110b, 9-cyclopropyl-2-(3-cyclopropyl-1H-1,2,4-triazol-1-yl)-7,8-dihydro-[1,4]diazepino[7,1-a][2,6]naphthyridin-5(4H)-one]	758	> 10000	–
CO[C@H](C)c1cn(C2=NCC(=O)N3CCc4c(ccnc4C4CC4)C3=C2)cn1 [Example 110c, (R)-9-cyclopropyl-2-(4-(1-methoxyethyl)-1H-imidazol-1-yl)-7,8-dihydro-[1,4]diazepino[7,1-a][2,6]naphthyridin-5(4H)-one]	–	> 10000	72
O=C1CN=C(n2cnc(C(F)F)c2)C=C2c3ccnc(C4CC4)c3CCN12 [Example 110d, 9-cyclopropyl-2-(4-(difluoromethyl)-1H-imidazol-1-yl)-7,8-dihydro-[1,4]diazepino[7,1-a][2,6]naphthyridin-5(4H)-one]	–	> 10000	57
CC(C)(C)c1cn(C2=NCC(=O)N3CCc4c(cccc4C4CCCO4)C3=C2)cn1 (centres unmarked) [Example 112, 2-(4-(tert-butyl)-1H-imidazol-1-yl)-9-(tetrahydrofuran-2-yl)-7,8-dihydro-[1,4]diazepino[7,1-a]isoquinolin-5(4H)-one]	515	> 10000	–
CCc1cn(C2=NCC(=O)N3CCc4c(cccc4C4(F)CCC4)C3=C2)cn1 [Example 113, 2-(4-ethyl-1H-imidazol-1-yl)-9-(1-fluorocyclobutyl)-7,8-dihydro-[1,4]diazepino[7,1-a]isoquinolin-5(4H)-one]	120	2300	–
CCc1cn(C2=NCC(=O)N3CCc4c(cccc4C4(F)COC4)C3=C2)cn1 [Example 114, 2-(4-ethyl-1H-imidazol-1-yl)-9-(3-fluorooxetan-3-yl)-7,8-dihydro-[1,4]diazepino[7,1-a]isoquinolin-5(4H)-one]	1600	> 10000	–
CC(=O)c1cccc2c1CCN1C(=O)CN=C(n3cnc(C)c3)C=C21 [Example 116, 9-acetyl-2-(4-methyl-1H-imidazol-1-yl)-7,8-dihydro-[1,4]diazepino[7,1-a]isoquinolin-5(4H)-one]	410	> 10000	–

SMILES	IC50 [1] [nM]	IC50 [2] [nM]	inhibition at 2 µM [1] [%]
CC(=O)c1cccc2c1CCN1C(=O)CN=C(n3cnc(C4CCC4)c3)C=C21 [Example 117, 9-acetyl-2-(4-cyclobutyl-1H-imidazol-1-yl)-7,8-dihydro-[1,4]diazepino[7,1-a]isoquinolin-5(4H)-one]	35	660	–
C=C(C)c1cccc2c1CCN1C(=O)CN=C(n3cnc([C@@H](C)OC)c3)C=C21 [Example 118, (R)-2-(4-(1-methoxyethyl)-1H-imidazol-1-yl)-9-(prop-1-en-2-yl)-7,8-dihydro-[1,4]diazepino[7,1-a]isoquinolin-5(4H)-one]	18	> 10000	–
C=C(C)c1cccc2c1CCN1C(=O)CN=C(n3cnc([C@H](C)OC)c3)C=C21 [Example 119, (S)-2-(4-(1-methoxyethyl)-1H-imidazol-1-yl)-9-(prop-1-en-2-yl)-7,8-dihydro-[1,4]diazepino[7,1-a]isoquinolin-5(4H)-one]	24	2600	–
COCc1cn(C2=NCC(=O)N3CCc4c(C5=CCCC5)cccc4C3=C2)cn1 [Example 120, 9-(cyclopent-1-en-1-yl)-2-(4-(methoxymethyl)-1H-imidazol-1-yl)-7,8-dihydro-[1,4]diazepino[7,1-a]isoquinolin-5(4H)-one]	7	890	–
C=C(C)c1cccc2c1CCN1C(=O)CN=C(n3cnc(COC)c3)C=C21 [Example 121, 2-(4-(methoxymethyl)-1H-imidazol-1-yl)-9-(prop-1-en-2-yl)-7,8-dihydro-[1,4]diazepino[7,1-a]isoquinolin-5(4H)-one]	14	490	–
CO[C@@H](C)c1cn(C2=NCC(=O)N3CCc4c(cccc4C4CC4)C3=C2)cn1 [Example 122, (S)-9-cyclopropyl-2-(4-(1-methoxyethyl)-1H-imidazol-1-yl)-7,8-dihydro-[1,4]diazepino[7,1-a]isoquinolin-5(4H)-one]	5	1100	–
CO[C@H](C)c1cn(C2=NCC(=O)N3CCc4c(cccc4C4CC4)C3=C2)cn1 [Example 123, (R)-9-cyclopropyl-2-(4-(1-methoxyethyl)-1H-imidazol-1-yl)-7,8-dihydro-[1,4]diazepino[7,1-a]isoquinolin-5(4H)-one]	3	7000	–
O=C1CN=C(n2cnc(-c3cnco3)c2)C=C2c3cccc(C4CC4)c3CCN12 [Example 123a, 9-cyclopropyl-2-(4-(oxazol-5-yl)-1H-imidazol-1-yl)-7,8-dihydro-[1,4]diazepino[7,1-a]isoquinolin-5(4H)-one]	12	> 2000	–
O=C1CN=C(n2cnc(-c3ccno3)c2)C=C2c3cccc(C4CC4)c3CCN12 [Example 123b, 9-cyclopropyl-2-(4-(isoxazol-5-yl)-1H-imidazol-1-yl)-7,8-dihydro-[1,4]diazepino[7,1-a]isoquinolin-5(4H)-one]	1	2340	–
O=C1CN=C(n2cnc(C3CC3)n2)C=C2c3cccc(C4CC4)c3CCN12 [Example 123c, 9-cyclopropyl-2-(3-cyclopropyl-1H-1,2,4-triazol-1-yl)-7,8-dihydro-[1,4]diazepino[7,1-a]isoquinolin-5(4H)-one]	8	226	–
COc1cn(C2=NCC(=O)N3CCc4c(cccc4C4CC4)C3=C2)cn1 [Example 123d, 9-cyclopropyl-2-(4-methoxy-1H-imidazol-1-yl)-7,8-dihydro-[1,4]diazepino[7,1-a]isoquinolin-5(4H)-one]	11	511	–
O=C1CN=C(n2cnc(C(F)(F)F)c2)C=C2c3cccc(C4CC4)c3CCN12 [Example 123e, 9-cyclopropyl-2-(4-(trifluoromethyl)-1H-imidazol-1-yl)-7,8-dihydro-[1,4]diazepino[7,1-a]isoquinolin-5(4H)-one]	56	1640	–
O=C1CN=C(n2cnc(-c3ccncc3)c2)C=C2c3cccc(C4CC4)c3CCN12 [Example 123f, 9-cyclopropyl-2-(4-(pyridin-4-yl)-1H-imidazol-1-yl)-7,8-dihydro-[1,4]diazepino[7,1-a]isoquinolin-5(4H)-one]	108	> 2000	–
CCC(=O)c1cccc2c1CCN1C(=O)CN=C(n3cnc(C4CCC4)c3)C=C21 [Example 124, 2-(4-cyclobutyl-1H-imidazol-1-yl)-9-propionyl-7,8-dihydro-[1,4]diazepino[7,1-a]isoquinolin-5(4H)-one]	5	3300	–
COCc1cn(C2=NCC(=O)N3CCc4c(cccc4C(C)(C)C)C3=C2)cn1 [Example 125, 9-(tert-butyl)-2-(4-(methoxymethyl)-1H-imidazol-1-yl)-7,8-dihydro-[1,4]diazepino[7,1-a]isoquinolin-5(4H)-one]	180	> 2000	–
